Measurements published in ChEMBL document CHEMBL4715706, “Discovery of Benzotriazolo[4,3-d][1,4]diazepines as Orally Active Inhibitors of BET Bromodomains” (ACS Med Chem Lett, 2016).

Tests used:
[1] = Unbound clearance in rat at 1 mg/kg, iv; assay type: ADME, organism-based; conditions: in vivo
[2] = biological target: T1, Bromodomain-containing protein 1 (Homo sapiens, UniProt O95696); experiment: Inhibition of BRD1 (unknown origin) measured after 70 mins by TR-FRET assay
T1 sequence (O95696 whole entry): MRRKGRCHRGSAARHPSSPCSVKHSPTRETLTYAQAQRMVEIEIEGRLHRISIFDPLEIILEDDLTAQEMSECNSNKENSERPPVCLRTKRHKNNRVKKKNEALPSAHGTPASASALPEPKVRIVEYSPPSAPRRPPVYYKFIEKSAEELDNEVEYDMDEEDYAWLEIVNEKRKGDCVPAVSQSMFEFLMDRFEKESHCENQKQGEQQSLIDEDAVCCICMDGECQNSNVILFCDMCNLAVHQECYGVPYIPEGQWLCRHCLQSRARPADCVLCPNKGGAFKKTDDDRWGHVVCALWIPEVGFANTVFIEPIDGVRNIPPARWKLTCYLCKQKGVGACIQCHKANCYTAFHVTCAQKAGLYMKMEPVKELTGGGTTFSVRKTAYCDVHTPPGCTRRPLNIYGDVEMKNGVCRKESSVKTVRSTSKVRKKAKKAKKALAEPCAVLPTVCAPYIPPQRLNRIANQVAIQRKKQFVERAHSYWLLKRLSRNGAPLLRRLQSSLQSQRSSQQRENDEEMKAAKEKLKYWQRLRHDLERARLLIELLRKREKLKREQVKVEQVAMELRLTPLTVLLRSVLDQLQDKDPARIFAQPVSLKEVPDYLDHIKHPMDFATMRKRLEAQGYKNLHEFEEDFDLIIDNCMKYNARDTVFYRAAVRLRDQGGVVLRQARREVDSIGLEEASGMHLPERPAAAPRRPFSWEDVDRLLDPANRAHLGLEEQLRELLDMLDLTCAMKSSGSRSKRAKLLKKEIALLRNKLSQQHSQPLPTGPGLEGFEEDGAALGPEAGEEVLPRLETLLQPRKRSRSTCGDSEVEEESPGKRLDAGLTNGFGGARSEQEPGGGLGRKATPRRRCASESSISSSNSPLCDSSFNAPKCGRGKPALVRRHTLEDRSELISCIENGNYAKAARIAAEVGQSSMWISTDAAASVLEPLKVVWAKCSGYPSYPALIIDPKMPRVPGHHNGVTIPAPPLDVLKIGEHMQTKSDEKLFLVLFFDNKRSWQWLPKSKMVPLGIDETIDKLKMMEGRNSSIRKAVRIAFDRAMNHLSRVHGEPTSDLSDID

[3] = biological target: Bromodomain-containing protein 3 (Homo sapiens, UniProt Q15059); experiment: Inhibition of BRD3 BD1 (unknown origin) using biotinylated JQ1 analog as substrate measured after 20 mins by AlphaLISA assay
[4] = Cmax in rat at 10 mg/kg, po; assay type: ADME, organism-based; parameters: route oral, dose 10 mg/kg; conditions: in vivo
[5] = Intrinsic clearance in rat liver microsomes

Chain of Bromodomain-containing protein 3 (Q15059 whole entry): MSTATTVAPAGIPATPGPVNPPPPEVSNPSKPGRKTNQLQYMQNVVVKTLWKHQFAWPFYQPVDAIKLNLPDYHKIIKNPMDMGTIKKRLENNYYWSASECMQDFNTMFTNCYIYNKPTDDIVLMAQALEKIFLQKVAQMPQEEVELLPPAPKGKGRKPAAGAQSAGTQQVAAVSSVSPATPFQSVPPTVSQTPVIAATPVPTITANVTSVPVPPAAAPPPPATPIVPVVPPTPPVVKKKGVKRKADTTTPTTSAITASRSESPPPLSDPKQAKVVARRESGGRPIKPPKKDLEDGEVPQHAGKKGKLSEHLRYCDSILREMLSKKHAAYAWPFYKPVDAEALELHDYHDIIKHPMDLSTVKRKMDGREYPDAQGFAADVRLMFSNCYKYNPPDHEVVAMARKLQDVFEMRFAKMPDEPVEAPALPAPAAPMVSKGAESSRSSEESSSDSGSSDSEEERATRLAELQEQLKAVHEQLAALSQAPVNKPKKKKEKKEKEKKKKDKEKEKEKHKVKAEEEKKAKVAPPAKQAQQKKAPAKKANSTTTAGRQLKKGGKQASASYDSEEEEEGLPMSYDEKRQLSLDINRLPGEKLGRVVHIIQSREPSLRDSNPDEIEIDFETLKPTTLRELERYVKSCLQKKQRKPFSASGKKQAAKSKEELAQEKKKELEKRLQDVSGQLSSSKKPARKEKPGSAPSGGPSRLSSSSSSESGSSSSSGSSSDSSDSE

- CL free [1]: 1580 mL/min/kg
- IC50 [2]: > 15000 nM
- IC50 [3]: 3 nM
- Cmax [4]: 290 nM
- microsomal CLint [5]: 26 µL/min/mg
SMILES: Cc1nnc2n1-c1ccc(-c3ccc(N)nc3)cc1N(c1ccc(Cl)cc1)C[C@H]2C
